Laboratory results: patent publication US20250197409A1, “BIFUNCTIONAL COMPOUND AND PHARMACEUTICAL COMPOSITION COMPRISING THE BIFUNCTIONAL COMPOUND, AND METHOD FOR TREATING ANDROGEN RECEPTOR RELATED DISEASE BY USING THE SAME” (ANHORN MEDICINES CO., LTD., priority 2022, published 2025)
Like-named read-outs stand apart in the source and are kept apart here.

Biological target: T1, androgen receptor (Homo sapiens, UniProt P10275, T878A)
T1 construct: host or cells: LNCaP.FGC
Assay: Androgen receptor degradation assay using Western blot analysis
Assay type: cell-based
Protocol: Cells not treated with any of the above-mentioned compounds are used as a negative control.
The internal loading control GAPDH was detected using a mouse monoclonal antibody (1:5000) (GTX627408, GeneTex International Corp., HsinChu City, Taiwan R.O.C.) and a goat anti-mouse HRP-conjugated secondary antibody (1:5000 dilution) (C04001, Croyez Bioscience Co., Ltd., Taipei City, Taiwan R.O.C.).
AR remaining percentage was determined by the intensity difference of AR signals (each was normalized by the corresponding internal loading control GAPDH) between the protein samples from the untreated cells (100%) and those from the treated cells. “Cpd. #” indicates the compound number hereinabove.
In addition, several compounds were selected to prepare a treatment stock solutions at 100 nM in RPMI medium. The treatment stock solutions were separately serially diluted (10×) with RPMI medium for treating LNCaP.FGC cells seeded with 2×10^5 cells per well in 24-well tissue culture plates. A calibration curve was determined by the serial diluted samples for each compound, and the concentration needed for 50% AR degradation (AR DC50) for each compound was calculated.

[1] = 24 h, read-out: Androgen Receptor Remaining (%), LNCaP.FGC cells, 100 nM, 24 hr, normalized to GAPDH, untreated cells = 100%
[2] = read-out: AR DC50 (concentration needed for 50% AR degradation); LNCaP.FGC cells, serial 10x dilutions from 100 nM
[3] = 24 h, LNCaP.FGC cells, 100 nM, 24 hr, normalized to GAPDH, untreated cells = 100%; read-out: Androgen Receptor Remaining (%)
[4] = LNCaP.FGC cells, serial 10x dilutions from 100 nM; read-out: AR DC50 (concentration needed for 50% AR degradation)

T1 sequence (P10275 whole entry T878A): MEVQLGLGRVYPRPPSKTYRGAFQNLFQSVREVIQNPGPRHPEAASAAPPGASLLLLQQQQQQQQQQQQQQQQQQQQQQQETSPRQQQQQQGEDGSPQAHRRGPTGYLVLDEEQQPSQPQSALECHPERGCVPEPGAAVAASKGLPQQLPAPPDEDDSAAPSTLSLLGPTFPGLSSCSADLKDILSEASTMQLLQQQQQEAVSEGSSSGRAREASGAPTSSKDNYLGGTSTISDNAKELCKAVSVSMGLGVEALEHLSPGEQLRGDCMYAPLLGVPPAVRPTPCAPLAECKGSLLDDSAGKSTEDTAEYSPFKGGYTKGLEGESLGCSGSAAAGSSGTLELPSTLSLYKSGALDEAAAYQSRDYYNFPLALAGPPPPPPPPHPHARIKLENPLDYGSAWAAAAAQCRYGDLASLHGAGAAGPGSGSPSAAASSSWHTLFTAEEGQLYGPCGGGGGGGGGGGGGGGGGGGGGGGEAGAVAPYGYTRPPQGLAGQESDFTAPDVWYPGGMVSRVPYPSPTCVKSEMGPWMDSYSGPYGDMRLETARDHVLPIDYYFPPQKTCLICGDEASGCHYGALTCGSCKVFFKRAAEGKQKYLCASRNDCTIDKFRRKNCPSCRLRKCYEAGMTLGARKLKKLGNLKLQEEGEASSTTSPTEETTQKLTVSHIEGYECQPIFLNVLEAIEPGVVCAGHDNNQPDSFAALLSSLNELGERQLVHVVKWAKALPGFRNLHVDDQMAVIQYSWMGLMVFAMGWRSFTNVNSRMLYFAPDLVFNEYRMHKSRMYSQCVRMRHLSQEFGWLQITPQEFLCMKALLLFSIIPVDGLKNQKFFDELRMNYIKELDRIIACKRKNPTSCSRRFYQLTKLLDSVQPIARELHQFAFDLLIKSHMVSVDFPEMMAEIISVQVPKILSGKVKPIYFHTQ
T1 sequence (Q96SW2 whole entry partner): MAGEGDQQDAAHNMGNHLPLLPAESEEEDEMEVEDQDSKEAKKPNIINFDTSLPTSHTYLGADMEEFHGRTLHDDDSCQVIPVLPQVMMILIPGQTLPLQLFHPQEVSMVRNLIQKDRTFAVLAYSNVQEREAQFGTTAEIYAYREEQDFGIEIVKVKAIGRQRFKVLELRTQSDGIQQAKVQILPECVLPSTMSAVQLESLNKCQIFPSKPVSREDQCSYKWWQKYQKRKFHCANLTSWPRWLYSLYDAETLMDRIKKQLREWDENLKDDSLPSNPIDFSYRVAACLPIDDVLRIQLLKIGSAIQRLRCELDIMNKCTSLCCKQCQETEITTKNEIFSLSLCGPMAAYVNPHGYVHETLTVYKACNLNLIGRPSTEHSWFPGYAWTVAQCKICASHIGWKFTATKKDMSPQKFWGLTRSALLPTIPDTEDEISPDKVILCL

Compound | remaining activity at 0.1 µM [1] [%] | DC50 [2] [nM] | also measured
CCn1c2c(c3ccc(OCCN4CCC5(CC4)CN(c4ccc(C(=O)N[C@H]6C(C)(C)[C@H](Oc7ccc(C#N)c(Cl)c7)C6(C)C)nn4)C5)cc31)C(=O)N(C1CCC(=O)NC1=O)C2=O (some centres unmarked) [Compound 51] | 20 | 25 to 100 | 
CCn1c2c(c3ccc(OCCN4CCCN(c5ccc(C(=O)N[C@H]6CC[C@H](Oc7ccc(C#N)c(Cl)c7)CC6)nn5)CC4)cc31)C(=O)N(C1CCC(=O)NC1=O)C2=O (some centres unmarked) [Compound 52] | 42 | 10 to 25 | 
CCn1c2c(c3ccc(OCCN4CCCN(c5ccc(C(=O)N[C@H]6C(C)(C)[C@H](Oc7ccc(C#N)c(Cl)c7)C6(C)C)nn5)CC4)cc31)C(=O)N(C1CCC(=O)NC1=O)C2=O (some centres unmarked) [Compound 53] | 77 |  | 
CCn1c2c(c3ccc(OCCCN4CCCN(c5ccc(C(=O)N[C@H]6C(C)(C)[C@H](Oc7ccc(C#N)c(Cl)c7)C6(C)C)nn5)CC4)cc31)C(=O)N(C1CCC(=O)NC1=O)C2=O (some centres unmarked) [Compound 54] | 72 |  | 
CCn1c2c(c3ccc(OCCN4C[C@H](C)N(c5ccc(C(=O)N[C@H]6CC[C@H](Oc7ccc(C#N)c(Cl)c7)CC6)nn5)C[C@H]4C)cc31)C(=O)N(C1CCC(=O)NC1=O)C2=O (some centres unmarked) [Compound 55] | 40 | 25 to 100 | 
CCn1c2c(c3ccc(NC(=O)CN4CCN(c5ccc(C(=O)N[C@H]6C(C)(C)[C@H](Oc7ccc(C#N)c(Cl)c7)C6(C)C)cn5)CC4)cc31)C(=O)N(C1CCC(=O)NC1=O)C2=O (some centres unmarked) [Compound 56] | 4 | 25 to 100 | 
CCn1c2c(c3ccc(OCCN4CCN(c5ccc(C(=O)N[C@H]6CC[C@H](Oc7ccc(C#N)c(Cl)c7)CC6)nn5)[C@@H](C)C4)cc31)C(=O)N(C1CCC(=O)NC1=O)C2=O (some centres unmarked) [Compound 57] | 53 |  | 
CC[C@H]1CN(CCOc2ccc3c4c(n(CC)c3c2)C(=O)N(C2CCC(=O)NC2=O)C4=O)CCN1c1ccc(C(=O)N[C@H]2CC[C@H](Oc3ccc(C#N)c(Cl)c3)CC2)nn1 (some centres unmarked) [Compound 58] | 65 |  | 
CCn1c2c(c3ccc(OCCCN4C[C@H](C)N(c5ccc(C(=O)N[C@H]6CC[C@H](Oc7ccc(C#N)c(Cl)c7)CC6)nn5)C[C@H]4C)cc31)C(=O)N(C1CCC(=O)NC1=O)C2=O (some centres unmarked) [Compound 59] | 66 |  | 
CC[C@H]1CN(CCCOc2ccc3c4c(n(CC)c3c2)C(=O)N(C2CCC(=O)NC2=O)C4=O)CCN1c1ccc(C(=O)N[C@H]2CC[C@H](Oc3ccc(C#N)c(Cl)c3)CC2)nn1 (some centres unmarked) [Compound 60] | 57 |  | 
CCn1c2c(c3ccc(OCCCN4CCN(c5cnc(C(=O)N[C@H]6CC[C@H](Oc7ccc(C#N)c(Cl)c7)CC6)cn5)CC4)cc31)C(=O)N(C1CCC(=O)NC1=O)C2=O (some centres unmarked) [Compound 61] | 96 |  | 
CCn1c2c(c3ccc(OCCN4CCN(c5cnc(C(=O)N[C@H]6CC[C@H](Oc7ccc(C#N)c(Cl)c7)CC6)cn5)CC4)cc31)C(=O)N(C1CCC(=O)NC1=O)C2=O (some centres unmarked) [Compound 62] | 65 |  | 
CCn1c2c(c3ccc(OCCCN4CCN(c5ccc(C(=O)N[C@H]6CC[C@H](Oc7ccc(C#N)c(Cl)c7)CC6)nn5)CC4)cc31)C(=O)N([C@H]1CCC(=O)NC1=O)C2=O [Compound 63] |  | 10 to 25 | 
CCn1c2c(c3ccc(OCCN4C5CCC4CN(c4ccc(C(=O)N[C@H]6CC[C@H](Oc7ccc(C#N)c(Cl)c7)CC6)nn4)C5)cc31)C(=O)N(C1CCC(=O)NC1=O)C2=O (some centres unmarked) [Compound 64] | 40 | 25 to 100 | 
CCn1c2c(c3ccc(OCCCN4CCN(c5ccc(C(=O)N[C@H]6CC[C@H](Oc7ccc(C#N)c(Cl)c7)CC6)nn5)[C@@H](C)C4)cc31)C(=O)N(C1CCC(=O)NC1=O)C2=O (some centres unmarked) [Compound 65] | 32 | 25 to 100 | 
Cn1c2c(c3ccc(NC(=O)CN4CCN(c5ccc(C(=O)N[C@H]6CC[C@H](Oc7ccc(C#N)c(Cl)c7)CC6)cn5)CC4)cc31)C(=O)N(C1CCC(=O)NC1=O)C2=O (some centres unmarked) [Compound 66] |  |  | remaining activity at 0.1 µM [3]: 100%
Cn1c2c(c3ccc(NC(=O)CN4CCCN(c5ccc(C(=O)N[C@H]6CC[C@H](Oc7ccc(C#N)c(Cl)c7)CC6)nn5)CC4)cc31)C(=O)N(C1CCC(=O)NC1=O)C2=O (some centres unmarked) [Compound 68] |  |  | remaining activity at 0.1 µM [3]: 81%
Cn1c2c(c3ccc(NC(=O)CN4CCC5(CC4)CN(c4ccc(C(=O)N[C@H]6C(C)(C)[C@H](Oc7ccc(C#N)c(Cl)c7)C6(C)C)nn4)C5)cc31)C(=O)N(C1CCC(=O)NC1=O)C2=O (some centres unmarked) [Compound 69] |  |  | remaining activity at 0.1 µM [3]: 51%
CCn1c2c(c3ccc(OCCN4CC5CCC(C4)N5c4ccc(C(=O)N[C@H]5CC[C@H](Oc6ccc(C#N)c(Cl)c6)CC5)nn4)cc31)C(=O)N(C1CCC(=O)NC1=O)C2=O (some centres unmarked) [Compound 70] | 62 |  | 

Compound | remaining activity at 0.1 µM [1] [%] | DC50 [2] [nM] | also measured
CCn1c2c(c3ccc(OCCCN4CC5CCC(C4)N5c4ccc(C(=O)N[C@H]5CC[C@H](Oc6ccc(C#N)c(Cl)c6)CC5)nn4)cc31)C(=O)N(C1CCC(=O)NC1=O)C2=O (some centres unmarked) [Compound 71] | 77 |  | 
CCn1c2c(c3ccc(OCCCN4CC5(CCN(c6ccc(C(=O)N[C@H]7CC[C@H](Oc8ccc(C#N)c(Cl)c8)CC7)nn6)CC5)C4)cc31)C(=O)N(C1CCC(=O)NC1=O)C2=O (some centres unmarked) [Compound 72] |  | < 10 | Androgen Receptor Remaining (%) (LNCaP.FGC cells, 100 nM, 24 hr, normalized to GAPDH, untreated cells = 100%): 26%
CCn1c2c(c3ccc(OCCN4CCN(c5ccc(C(=O)N[C@H]6CC[C@H](Oc7ccc(C#N)c(Cl)c7)CC6)nn5)C[C@H]4C)cc31)C(=O)N(C1CCC(=O)NC1=O)C2=O (some centres unmarked) [Compound 73] | 41 | 25 to 100 | 
CCn1c2c(c3ccc(OCCCN4CCN(c5ccc(C(=O)N[C@H]6CC[C@H](Oc7ccc(C#N)c(Cl)c7)CC6)nn5)C[C@H]4C)cc31)C(=O)N(C1CCC(=O)NC1=O)C2=O (some centres unmarked) [Compound 74] | 40 | 25 to 100 | 
Cn1c2c(c3ccc(OCCN4CCCN(c5ccc(C(=O)N[C@H]6CC[C@H](Oc7ccc(C#N)c(Cl)c7)CC6)nn5)CC4)cc31)C(=O)N(C1CCC(=O)NC1=O)C2=O (some centres unmarked) [Compound 75] |  |  | remaining activity at 0.1 µM [3]: 26%; DC50 [4]: 10 to 25 nM
CCn1c2c(c3ccc(OCCCN4[C@H](C)CN(c5ccc(C(=O)N[C@H]6CC[C@H](Oc7ccc(C#N)c(Cl)c7)CC6)nn5)C[C@@H]4C)cc31)C(=O)N(C1CCC(=O)NC1=O)C2=O (some centres unmarked) [Compound 76] | 78 |  | 
CCn1c2c(c3ccc(OCCN4[C@H](C)CN(c5ccc(C(=O)N[C@H]6CC[C@H](Oc7ccc(C#N)c(Cl)c7)CC6)nn5)C[C@@H]4C)cc31)C(=O)N(C1CCC(=O)NC1=O)C2=O (some centres unmarked) [Compound 77] | 92 |  | 
CCn1c2c(c3ccc(OCCCN4CCN(c5ccc(C(=O)N[C@H]6CC[C@H](N(C)c7ccc(C#N)c(Cl)c7)CC6)nn5)CC4)cc31)C(=O)N(C1CCC(=O)NC1=O)C2=O (some centres unmarked) [Compound 78] | 57 | 10 to 25 | 
CCn1c2c(c3ccc(OCCN4CCN(c5ccc(C(=O)N[C@H]6CC[C@H](N(C)c7ccc(C#N)c(Cl)c7)CC6)nn5)CC4)cc31)C(=O)N(C1CCC(=O)NC1=O)C2=O (some centres unmarked) [Compound 79] | 60 |  | 
CCn1c2c(c3ccc(OCCN4CC5(CCN(c6ccc(C(=O)N[C@H]7CC[C@H](Oc8ccc(C#N)c(Cl)c8)CC7)nn6)CC5)C4)cc31)C(=O)N(C1CCC(=O)NC1=O)C2=O (some centres unmarked) [Compound 80] | 22 | 10 to 25 | 
CCn1c2c(c3ccc(OCCN4CCC5(CC4)CN(c4ccc(C(=O)N[C@H]6CC[C@H](Oc7ccc(C#N)c(Cl)c7)CC6)nn4)C5)cc31)C(=O)N(C1CCC(=O)NC1=O)C2=O (some centres unmarked) [Compound 81] | 9 | < 10 | 
N#Cc1ccc(O[C@H]2CC[C@H](NC(=O)c3ccc(N4CCN(CCCOc5ccc6c7c(n(CC(F)F)c6c5)C(=O)N(C5CCC(=O)NC5=O)C7=O)CC4)nn3)CC2)cc1Cl (some centres unmarked) [Compound 82] | 35 | 25 to 100 | 
CN(c1ccc(C#N)c(Cl)c1)[C@H]1CC[C@H](NC(=O)c2ccc(N3CCN(CCCOc4ccc5c6c(n(CC(F)F)c5c4)C(=O)N(C4CCC(=O)NC4=O)C6=O)CC3)nn2)CC1 (some centres unmarked) [Compound 83] | 41 | 10 to 25 | 
C[Si](C)(C)CCOCn1c2c(c3ccc(OCCCN4CCN(c5ccc(C(=O)N[C@H]6CC[C@H](Oc7ccc(C#N)c(Cl)c7)CC6)nn5)CC4)cc31)C(=O)N(C1CCC(=O)NC1=O)C2=O (some centres unmarked) [Compound 84] | 62 |  | 
N#Cc1ccc(O[C@H]2CC[C@H](NC(=O)c3ccc(N4CCN(CCCOc5ccc6c7c(n(CO)c6c5)C(=O)N(C5CCC(=O)NC5=O)C7=O)CC4)nn3)CC2)cc1Cl (some centres unmarked) [Compound 85] | 20 | 25 to 100 | 
N#Cc1ccc(O[C@H]2CC[C@H](NC(=O)c3ccc(N4CCN(CCCOc5ccc6c7c([nH]c6c5)C(=O)N(C5CCC(=O)NC5=O)C7=O)CC4)nn3)CC2)cc1Cl (some centres unmarked) [Compound 86] |  |  | remaining activity at 0.1 µM [3]: 20%; DC50 [4]: 25 to 100 nM
Cn1c2c(c3ccc(OCCCN4CCCN(c5ccc(C(=O)N[C@H]6CC[C@H](Oc7ccc(C#N)c(Cl)c7)CC6)nn5)CC4)cc31)C(=O)N(C1CCC(=O)NC1=O)C2=O (some centres unmarked) [Compound 87] |  |  | remaining activity at 0.1 µM [3]: 21%; DC50 [4]: 25 to 100 nM
Cn1c2c(c3ccc(OCCN4CCC5(CC4)CN(c4ccc(C(=O)N[C@H]6CC[C@H](Oc7ccc(C#N)c(Cl)c7)CC6)nn4)C5)cc31)C(=O)N(C1CCC(=O)NC1=O)C2=O (some centres unmarked) [Compound 88] |  |  | remaining activity at 0.1 µM [3]: 10%; DC50 [4]: 10 to 25 nM
